Reference: US20140011772A1, “COMPOSITIONS AND METHODS FOR TREATING CONDITIONS ASSOCIATED WITH NEURONAL DYSFUNCTION” (NORTHWESTERN UNIVERSITY, priority 2009, published 2014)
“Also recorded” adds a separate entry of the source.

What was measured:
[1] = system: CA1 hippocampal pyramidal neurons; assay: Whole cell current-clamp recordings, firing upon depolarizing current injection; assay type: cell-based, rat; settings: FFA 0.2 mM
Description: (A) Current clamp recordings obtained (at 32-33° C.) from a CA1 hippocampal neuron in response to depolarizing current injection (150 pA, 1 s, bottom) in control (top trace) and in the presence of FFA (200 μM, middle). (B) Firing frequency in response to a series of current injections (1 s, 30 pA steps) in control and in FFA.
(§1) Electrophysiological recordings: Slices were visualized with an Axioskop 2FS (Zeiss) upright microscope with a water-immersion 60× objective (0.9 NA, Olympus). For whole cell current-clamp recordings, the bath solution contained kynurenic acid (2 mM) and picrotoxin (0.1 mM) to block fast synaptic transmission, and pipettes were filled with internal solution consisting of: 140K-gluconate, 8 mM NaCl, 2 mM MgCl2, 1 mM EGTA, 2 mM Na2ATP 2, 0.1 mM NaGTP, 10 mM HEPES, pH 7.3 with KOH.
The effect of FFA on burst and tonic firing of hippocampal pyramidal neurons was examined during development of embodiments of the present invention (FIG. 13). Recordings were obtained in the presence of kynurenic acid (2 mM) and picrotoxin (0.1 mM) to block fast synaptic transmission. […] For a 150 pA depolarizing current pulse the firing frequency decreased from 21.7±1.82 Hz in control conditions to 1.87±0.61 Hz in FFA (FIG. 13A,B).

[2] = system: epileptiform discharges in 4AP treated rat hippocampal slices; assay: 4AP-induced epileptiform discharges, extracellular recordings from the CA1 area of hippocampal slices; assay type: cell-based
Description: A, extracellular recordings from the CA1 area of a rat hippocampal slices in which epileptic-like activity was induced by bath application of 4AP (50 μM). […] B, in another 4AP treated slice, the effects of different concentrations of FFA were tested.
Similar pathophysiologies exist for epilepsy and various chronic pain disorders (see, e.g., Pappagallo M (2003) Clin Ther. 25:2506-38; herein incorporated by reference in its entirety). […] Epileptic discharges were induced in a slice of rodent hippocampal tissue by bath application of the voltage-gated potassium channel blocker 4-aminopyridine (4AP) (see, e.g., Lopantsev V, Avoli M. (1998) J Physiol. 509:785-96; Brückner C, et al., Neurosci Lett. 268:163-5; each herein incorporated by reference in their entireties). […] The effect of flufenamic acid on hippocampal neurons, for example, involves induction of neuronal hyperpolarization by activating a background potassium conductance, and a reduction of neuronal excitability by inhibition of the voltage-gated sodium current.
Hippocampal brain slices: 11- to 20-day-old Long-Evans rats were anesthetized with isoflurane and killed by decapitation. The brain was removed from the skull in ice-cold artificial cerebrospinal fluid (ACSF), containing: 125 mM NaCl, 25 mM NaHCO3, 2.5 mM KCl, 1.25 mM NaH2PO4, 1.8 mM CaCl2, 1 mM MgCl2 and 2 mM 5 glucose, bubbled with 95% O2 and 5% CO2 (pH 7.4). Transverse hippocampal slices (300 μm thick) were cut using a vibroslicer (Dosaka) and stored in a solution containing: 87 mM NaCl, 25 mM NaHCO3, 2.5 mM KCl, 1.25 mM NaH2PO4, 0.5 mM CaCl2, 7 mM MgCl2, 75 mM sucrose and 25 mM glucose, bubbled with 95% O2 and 5% CO2; slices were kept at 35° C. for 15-20 minutes and subsequently at 24-25° C.

[3] = system: CA1 pyramidal neurons in 4-AP bathed slices; assay: 4-AP induced burst firing, whole-cell current clamp in 4-AP bathed slices; assay type: cell-based, rat
Description: The trace segments between dashed lines are shown on an expanded time scale (insets) to resolve bursts. (B) Firing frequency in response to depolarizing current injections. (C) Interspike interval ratio (ISI) against different current injections. For each current step, the ISI ratio was obtained dividing the interval between the first two spikes by the mean interspike interval. Recordings were obtained at 24-25° C.
as §1
Experiments were conducted during development of embodiments of the present invention to examine the inhibitory effect of FFA on burst firing. All CA1 pyramidal cells show robust burst firing in the presence of 4-Aminopyridine (4-AP), a potassium channel blocker. Whole-cell current clamp recordings were obtained from CA1 pyramidal neurons in 4-AP bathed slices. These recordings were also performed at 32-33° C. and in the presence of kynurenic acid and picrotoxin.

[4] = system: voltage-gated sodium channels of hippocampal CA1 pyramidal neurons; assay: Voltage-clamp nucleated patch recordings of voltage-gated sodium currents in CA1 pyramidal cells; assay type: cell-based, rat
Description: To study the gating properties of the sodium channels, voltage-clamp recordings were performed in the nucleated patch configuration, which allows almost ideal voltage clamp, even for fast sodium currents (28). Recordings were performed at 24-25° C. using an Axopatch 200B (Axon Instruments) patch-clamp amplifier. Data were sampled at 20 kHz and filtered at 10 kHz. Patch pipettes had resistance of 2.5-4 MΩ (in working solution) and were pulled from Corning #0010 lead glass (WPI) or borosilicate 0.4 mm-walled glass (Dagan). The internal solution was CsCl-based and contained: 140 mM CsCl, 10 mM NaCl, 2 mM MgCl2, 10 mM EGTA, 2 mM Na2ATP, 0.1 mM NaGTP, 10 mM HEPES 10, pH 7.3 with CsOH.
Capacitive transients were reduced by wrapping the pipettes in parafilm and compensated using the fast compensation circuitry of the amplifier. The whole-cell configuration was obtained and the pyramidal identity of cells was quickly confirmed by presence of a sag in the membrane potential in response to a hyperpolarizing current injection. The pipette was then slowly withdrawn while applying a constant negative pressure (−90 to −130 mbar). After excision, patches were held at −90 mV with a small pressure (−15 to −20 mbar). Sodium currents were then obtained by offline digital subtraction of traces in TTX from control traces.
Drugs were applied to the patches by using a multi-barrel system consisting of 4 glass capillaries (1.5 mm ID) glued together and connected to a syringe pump (WPIL). The patch-pipette carrying the nucleated patch was inserted into each of the pipes, each containing a different extracellular solution. The system ensures that the solution speed is the same in each barrel. For these recordings, the extracellular solution consisted of HEPES-buffered ACSF: 138 mM NaCl, 10 mM HEPES, 2.5 mM KCl, 2 mM CaCl2, 1 mM MgCl2 and 25 mM glucose (pH 7.3), 50 μM CdCl2, 10 mM TEA, and the drugs of interest.
The voltage-dependence of activation was fit with a Boltzmann function f(V)=1/(1+exp(−(V−V1/2)/k)) raised to the third power, where V1/2 is the voltage at which the activation is half-maximal, and k is the slope factor. The voltage-dependence of inactivation was similarly determined using a Boltzmann function, f(V)=1/(1+exp ((V−V1/2)/k)). The time course of recovery from inactivation was fit with a bi-exponential equation of the form, f(t)=1-(A1 exp(−t/τ) +A2 exp(−t/τ2)), yielding two time constants (τ) and relative contribution (A).
Voltage-gated sodium currents were recorded in nucleated patches from CA1 pyramidal cells from 11- to 20-day-old rats. FFA was tested at 0.2 mM, a concentration similar to that used as Ican blocker (0.5 mM, (32) and as two-pore potassium channels opener (0.1 mM, (40)).
The effect of FFA on the amplitude of sodium currents recorded in nucleated patches was investigated using a 30 ms step (to 10 mV) from −70 mV (close to the resting potential of hippocampal pyramidal neurons). 200 μM FFA blocked 34% of the sodium current (FIG. 7). The mechanism of action of FFA on sodium channels was characterized in detail. Even with a cesium-based intracellular solution and in the presence of extracellular TEA and cadmium some contaminating currents could often still be detected in pyramidal cell nucleated patches; therefore analysis was performed on TTX-subtracted traces only. TTX-sensitive current data for the control and the FFA were obtained from different patches.

[5] = system: SNI rats; assay: Von Frey pain thresholds in the spared nerve injury (SNI) model of chronic neuropathic pain; assay type: in vivo, rat; settings: for analgesic effect: 10 mg/kg in ethanol, oral; for analgesic effect / effect on pain threshold: 10 mg/kg; for effect on pain threshold: 10 mg/kg oral, both paws / non-operative paw
Description: Von Frey thresholds (a standard measure of pain sensitivity) were measured on the operated paw (left panel) and on the contralateral paw (right panel) in adult rats. 4 animals received the drug (10 mg/kg oral administration), and 4 animals the vehicle only. […] Note the fast onset of the effect, which may be very important for clinical use.
Chronic pain constitutes a primary reason driving people to seek health care. Pain was has been described as “epidemic” by the American Academy of Pain Management (American Pain Society, 1999): 50 million Americans are partially or totally disabled by pain. […] In particular, the spared nerve injury model (SNI), a reliable animal model of chronic neuropathic pain, was used to test the effect of oral administration of FFA. Control experiments were performed administrating the vehicle only. […] KCNK channels regulate neuronal excitability by regulating membrane potential, input resistance and synaptic gain (see, e.g., Taverna S, et al., 2005, J Neurosci Oct. 5; 25(40):9162-70; Meuth S G, et al., 2003 J Neurosci. Jul. 23; 23(16):6460-9; each herein incorporated by reference in their entireties).

[6] = FIG. 5: 100 ms pre-pulses, 30 ms test pulse to 0 mV, 2 nucleated patches

In the case of `O=C(O)c1ccccc1Nc1cccc(C(F)(F)F)c1` [FFA, 2-[[3-(trifluoromethyl)phenyl]amino]benzoic acid], the firing frequency ([1]; 150 pA, 1 s depolarizing current pulse, kynurenic acid and picrotoxin) is reported as 1.87±0.61 Hz, the “effect on number of action potentials / repetitive firing” value ([1]; 1 s-long depolarizing current injection) is reported as “strongly decreased the number of action potentials; also recorded: effectively decreases repetitive firing” and the “effect on epileptiform discharges” value ([2]; 50 μM FFA, 4AP treated slice) is reported as “small reduction in the amplitude of individual events”. The “effect on epileptiform discharges” value ([2]; 100 μM FFA, 4AP treated slice) was “strongly reduced the discharge frequency”, the “effect on epileptiform discharges” value ([2]; 200 μM FFA, 4AP 50 μM) was “completely and reversibly inhibited the epileptiform discharges; also recorded: completely abolished the discharges” and the “antiepileptic effect, concentration dependence” value ([2]; 4AP treated slices, 50-200 μM) was “clear dose-dependent effect; also recorded: potent, concentration dependent, antiepileptic effect”. The “effect on spikes and burst firing” value ([3]; 4-AP slice epilepsy model, bath application of FFA) was “dramatically reduced both the total number of spikes and bursting; also recorded: completely abolishes burst firing”, the “interspike interval (ISI) ratio” value ([3]; 120 pA current injection, 4-AP, FFA 0.2 mM) was 0.74±0.06 and the “Na+ channel activation slope factor (k/3)” value ([4]; 200 μM FFA) was 5.6±0.27 mV. The “block of the sodium current” value ([4]; 200 μM FFA, 30 ms step from −70 mV) was 34%, the “mean peak Na+ current amplitude” value ([4]; 200 μM FFA, 50 ms prepulse to −70 mV, test pulse to −10 mV, 15 nucleated patches) was −183.6±21.7 pA and the “Na+ channel activation mid-point potential” value ([4]; 200 μM FFA, Boltzmann raised to third power) was −11.3±1.36 mV. The “shift in voltage dependence of inactivation” value ([4]; 50 ms prepulse) was about 12 mV, the “steady-state inactivation mid-point potential” value ([4]; 50 ms prepulse, in FFA) was −67.8±1.4 mV and the “steady-state inactivation slope factor” value ([4]; 50 ms prepulse, in FFA) was 10.7±0.5 mV. The “steady-state inactivation mid-point potential” value ([4]; 200 ms prepulse, in FFA) was −74.1±2.6 mV, the “steady-state inactivation slope factor” value ([4]; 200 ms prepulse, in FFA) was 8.9±1.0 mV and the “sodium channel inactivation Boltzmann function half point” value [4, 6] was −89.7 mV. For the same compound, the “sodium channel inactivation Boltzmann slope” value [4, 6] was 9.1 mV, the “time constant of inactivation onset” value ([4]; at 0 mV, in FFA (0.2 mM)) was 0.70 ± 0.03 ms and the “fraction of sodium channels available for activation” value ([4]; at −70 mV, in FFA) was 0.57±0.04. For the same compound, the “effect on the sodium channel activation curve” value ([4]; hippocampal pyramidal neurons) was “No significant effect; also recorded: only minimal effect”, the “analgesic effect” value [5] was “rapid and potent analgesic effect” and the “analgesic effect” value ([5]; listed as flufenamic acid) was “potent analgesic effect”. The “increase of Von Frey threshold on the injured paw” value ([5]; 10 mg/kg oral administration, operated paw) was “more than 10 times”, the “effect on pain threshold” value [5] was “significantly increased the pain threshold in the non-operative paw” and the “effect on pain threshold” value ([5]; listed as flufenamic acid) was “increased pain threshold in both paws”.
